# “Also recorded” adds a separate entry of the source.
# Columns and labels:
# diabetic rats = test: Plasma free fatty acids, triglycerides and cholesterol of diabetic rats; assay type: in vivo, rat
# Experimental: (§1) In glucose tolerance tests and in chronic treatments, circulating glucose concentrations were determined by a rapid glucose analyser (Accutrend® Sensor Comfort, Roche, Basel. Switzerland). Plasma insulin (IRI) concentration was determined by ELISA method using a kit obtained from Crystal Chem Inc. (Downers Grove, Ill.). Plasma triglycerides (Biosystems, Barcelona, Spain) and NEFAS (Wako Chemicals, Neuss, Germany) were determined with standard […] methods.
# [1] = tested on: streptozotocin-induced diabetic rats; test: Chronic subcutaneous (osmotic minipump) treatment of streptozotocin (45 mg/kg) diabetic rats, glycemia; assay type: in vivo, rat; details: for glycemia during chronic subcutaneous treatment: 2.5 μmol/kg/day by osmotic minipumps, about two weeks, STZ 45 mg/kg rats, dihydrate
# Experimental: (§2) Male Wistar rats weighting 180-220 g were purchased from Harlan (Interfauna Ibèrica S.A., Spain). Diabetes was induced by a single intraperitoneal injection of a freshly prepared solution of streptozotocin (in some studies the dose was 45 mg/kg body weight and in some others 100 mg/kg body weight dissolved in 50 mM citrate buffer, pH 4.5). Only diabetic animals with glycemia above 300 mg/dl were used. The animals were housed in animal quarters at 22° C., with a 12 h light/12 h dark cycle and were fed ad libitum. All procedures used were approved by the animal ethical committee of the University of Barcelona, Spain. Male mice C57 BL/Ks bearing the db/db mutation (Jackson Laboratories, Bar Harbor, Me.) were purchased from Harlan France (Gannat, France). C57BL/6J male mice were assigned for 16 weeks to very high-fat diet containing (in kcal): 72% from fat, 28% from proteins and <1% from carbohydrates (Burcelin et al., 2002, Am. J. Physiol. Endocrinol. Metab 282: E834-E842).
# (§3) Osmotic minipumps delivering B6V10 (2.5 μmol/kg body wt/day) or decavanadate (2.5 μmol/kg body wt/day) were implanted subcutaneously in diabetic rats anaesthetised by ketamine hydrochloride (95 mg/kg) and xylasine (10 mg/kg). […] Glycemia was measured on arterio-venous blood collected from the tail vessels at 09:00 am for two weeks, before the administration of vanadate. Insulin concentrations were determined before and after treatment. In another set of experiments, B6V10 was orally administered at a single dose of 5 μmol/kg/day during the first week and 10 μmol/kg/day during 2 additional weeks by gastric gavage. A control group received the corresponding decavanadate salt in the absence of benzylamine. At the end of the treatment, animals were sacrificed and the liver, fat pad, heart and lung were kept at −80° C. and the plasma at −20° C. until their use for in vitro analysis.
# as §1
# The effect of chronic administration of hexaquis(benzylammonium) decavanadate on glycemia from diabetic rats was determined. Thus, diabetes was induced in rats by intravenous administration of streptozotocin, which destroys the β-pancreatic cells that produce insulin.
# Chronic in vivo efficacy of B6V10 was evaluated in streptozotocin-induced diabetic rats and in db/db mice. Streptozotocin-induced (45 mg/kg) diabetic rats were subcutaneously treated with hexaquis(benzylammonium) decavanadate (2.5 μmol/kg) (B6V10, solid squares, FIG. 8A) or with decavanadate (2.5 μmol/kg) (V10, open circles, FIG. 8A) delivered subcutaneously by osmotic minipumps implanted in the dorsal region. Diabetic rats were also sham-operated (untreated, solid diamonds, FIG. 8A). […] These experiments were repeated using an oral administration protocol. Streptozotocin-induced (45 mg/kg) diabetic rats were orally treated with hexaquis(benzylammonium) decavanadate (5 μmol/kg from day 0 to day 7 and 10 μmol/kg/day from day 7 to day 17) (B6V10, solid squares, FIG. 8B) or received decavanadate (10 μmol/kg) (V10, open circles, FIG. 8B). […]
# [2] = tested on: streptozotocin-induced diabetic rats; test: Chronic oral treatment of streptozotocin (45 mg/kg) diabetic rats, glycemia; assay type: in vivo, rat
# Experimental: as §2, §3, §1
# The effect of the oral administration of hexaquis(benzylammonium) decavanadate on glycemia from diabetic rats was also studied. Diabetes was induced in rats by intravenous administration of streptozotocin, and subsequently, a hexaquis(benzylammonium) decavanadate or sodium decavanadate unique dose was administered to the rats. […] After seven days of treatment, the dose was increased at 10 μmol/kg/day which was maintained for an additional ten days. […] Thus, glycemia in sodium decavanadate treated rats was approximately 450 mg/dl and glycemia of hexaquis(benzylammonium) decavanadate treated rats was approximately 250 mg/dl.
# Chronic in vivo efficacy of B6V10 was evaluated in streptozotocin-induced diabetic rats and in db/db mice. Streptozotocin-induced (45 mg/kg) diabetic rats were subcutaneously treated with hexaquis(benzylammonium) decavanadate (2.5 μmol/kg) (B6V10, solid squares, FIG. 8A) or with decavanadate (2.5 μmol/kg) (V10, open circles, FIG. 8A) delivered subcutaneously by osmotic minipumps implanted in the dorsal region. Diabetic rats were also sham-operated (untreated, solid diamonds, FIG. 8A). […] These experiments were repeated using an oral administration protocol. Streptozotocin-induced (45 mg/kg) diabetic rats were orally treated with hexaquis(benzylammonium) decavanadate (5 μmol/kg from day 0 to day 7 and 10 μmol/kg/day from day 7 to day 17) (B6V10, solid squares, FIG. 8B) or received decavanadate (10 μmol/kg) (V10, open circles, FIG. 8B). Nondiabetic rats were also untreated (solid triangles, FIG. 8B).
# [3] = tested on: streptozotocin-induced diabetic rat with undetectable circulating insulin; test: Subcutaneous treatment of streptozotocin (100 mg/kg) diabetic rats with undetectable circulating insulin; assay type: in vivo
# Experimental: as §2, §1
# To this end, rats were made diabetic by the injection of a large dose of streptozotocin (100 mg/kg) that eliminates β-pancreatic insulin content. […] These streptozotocin-induced diabetic rats were subcutaneously treated with B6V10 (2.5 μmol/kg) (solid squares, FIG. 9A) delivered by osmotic minipumps or left untreated (solid circles, FIG. 9A). Sham-operated nondiabetic rats were also untreated (solid triangles, FIG. 9A).
# The concentration of circulating glucose under these conditions was also assayed. After 28 days of treating diabetic rats with hexaquis(benzylammonium) decavanadate (2.5 μmol/kg) (wide striped bars, FIG. 9B), or with decavanadate (close striped bars, FIG. 9B) delivered by osmotic minipumps, plasma insulin and glucose were measured. Untreated diabetic (solid bars, FIG. 9B) or nondiabetic rats (open bars, FIG. 9B) were similarly assayed as controls.
# [4] = Tolerability in treated animals; assay type: in vivo
substance,measurement,setting,value
hexaquis(benzylammonium) decavanadate (V) dihydrate [Entry B6V10],"plasma concentrations of free fatty acids, triglycerides and cholesterol",diabetic rats,"normalized the plasma concentrations of free fatty acids, triglycerides and cholesterol"
same,glycemia during chronic subcutaneous treatment,[1],ameliorated hyperglycemia; also recorded: significant correction of hyperglycemia; also recorded: significant differences in the B6V10 group compared to the untreated group from day 8 of treatment
same,glycemia during chronic subcutaneous treatment,[1]; listed as hexaquis(benzylammonium) decavanadate,rapid reduction of the hyperglycemia that was detected after only four days of treatment
same,glucose transport of adipocytes isolated from treated rats,"[1]; fourteen days of treatment, basal conditions",increased glucose transport under basal conditions equivalent to that seen in the presence of insulin
same,"glycemia, oral 5 μmol/kg/day",[2]; 5 μmol/kg/day for seven days,moderate decrease of hyperglycemia that was detected after but two days of treatment
same,"glycemia, oral dose increased to 10 μmol/kg/day",[2]; 10 μmol/kg/day for an additional ten days,additional decrease in glycemia
same,glycemia during chronic oral treatment,"[2]; daily oral, 17 days (5 then 10 μmol/kg/day), STZ 45 mg/kg rats, dihydrate",ameliorated hyperglycemia; also recorded: significant correction of hyperglycemia
same,glycemia,"[2]; oral treatment, after dose increase to 10 μmol/kg/day",approximately 250 mg/dl
same,glycemia in diabetic rats with undetectable insulin,"[3]; 2.5 μmol/kg subcutaneous minipumps, STZ 100 mg/kg, dihydrate",markedly effective in lowering hyperglycemia; also recorded: reducing glycemia; also recorded: significant differences between the B6V10 and the untreated groups; also recorded: antidiabetic effects
same,plasma glucose and insulin after 28 days of treatment,"[3]; 2.5 μmol/kg, osmotic minipumps, STZ 100 mg/kg",plasma glucose was reduced even without any observable change in the amount of insulin
same,body weight or organ weights,[3]; chronic treatment with therapeutic doses,did not affect body weight or organ weights
same,toxicological side effects,[4]; at the doses used,did not show toxicological side effects
same,hypoglycemia,[4]; treated animals,did not cause hypoglycemia

# — patent publication US20070066682A1, “Arylalkylamine vanadium (V) salts for the treatment and/or prevention of Diabetes mellitus” (priority 2005, published 2007)
